Laboratory results as given in ChEMBL document CHEMBL1138923, “Structure-activity relationships of 1,5-biaryl pyrroles as EP1 receptor antagonists” (Bioorg Med Chem Lett, 2006).

What was measured:
[1] = target: T1, Prostaglandin E2 receptor EP1 subtype (Homo sapiens, UniProt P34995); assay: Inhibition of [3H]PGE2 binding to EP1 receptor expressed in CHO cells; type: cell-based
T1 sequence (P34995 whole entry): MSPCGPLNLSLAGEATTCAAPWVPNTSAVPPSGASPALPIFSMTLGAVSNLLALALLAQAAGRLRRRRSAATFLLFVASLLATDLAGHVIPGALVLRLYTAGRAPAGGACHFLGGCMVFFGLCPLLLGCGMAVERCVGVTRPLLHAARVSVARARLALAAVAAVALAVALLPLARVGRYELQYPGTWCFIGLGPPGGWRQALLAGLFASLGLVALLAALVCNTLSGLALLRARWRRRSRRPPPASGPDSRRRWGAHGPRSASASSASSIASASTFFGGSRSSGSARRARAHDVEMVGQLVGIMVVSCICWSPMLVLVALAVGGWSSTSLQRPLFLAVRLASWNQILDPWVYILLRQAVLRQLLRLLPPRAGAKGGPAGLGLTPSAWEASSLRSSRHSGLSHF

Cytochrome P450 (family) = Cytochrome P450 (family) (Homo sapiens, UniProt P04798+P05177+P05181+P08684+P10632+P10635+P11509+P11712+P13584+P20813+P20815+P20853+P24462+P24903+P33260+P33261+P51589+P78329+P98187+Q02928+Q08477+Q16678+Q16696+Q5TCH4+Q6VVX0+Q7Z449+Q8TAV3+Q96SQ9+Q9HB55); assay: Inhibition of CYP450; type: ADME
Cytochrome P450 2C9 = Cytochrome P450 2C9 (Homo sapiens, UniProt P11712); assay: Inhibition of CYP450 2C9; type: ADME
Sequence of Cytochrome P450 2C9 (P11712 whole entry): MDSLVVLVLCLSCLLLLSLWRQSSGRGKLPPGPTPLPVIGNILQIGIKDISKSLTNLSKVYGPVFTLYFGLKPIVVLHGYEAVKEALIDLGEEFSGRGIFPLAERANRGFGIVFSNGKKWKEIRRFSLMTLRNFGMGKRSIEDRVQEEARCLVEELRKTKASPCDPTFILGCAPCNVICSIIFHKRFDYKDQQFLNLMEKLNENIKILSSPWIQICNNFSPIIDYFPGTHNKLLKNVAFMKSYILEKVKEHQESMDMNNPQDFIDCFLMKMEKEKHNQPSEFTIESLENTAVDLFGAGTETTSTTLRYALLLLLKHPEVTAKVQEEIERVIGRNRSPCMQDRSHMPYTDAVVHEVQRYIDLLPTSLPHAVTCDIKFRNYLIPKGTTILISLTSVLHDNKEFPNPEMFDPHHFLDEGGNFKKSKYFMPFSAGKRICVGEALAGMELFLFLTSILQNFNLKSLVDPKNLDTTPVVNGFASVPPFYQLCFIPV

[2] = Oral bioavailability in rat at 3 mg/kg, po; type: ADME, organism-based; details: in vivo
Rattus norvegicus = species on record: Rattus norvegicus; assay: Decrease in weight bearing of left hind paw in rat FCA model of inflammatory pain 1 hr post dose; type: functional
[3] = Clearance in rat at 1 mg/kg, iv; type: ADME, organism-based; set-up: dose 1 mg/kg, route intravenous; details: in vivo
[4] = Volume of distribution in rat at 1 mg/kg, iv; type: ADME, organism-based; set-up: dose 1 mg/kg, route intravenous; details: in vivo, read-out: Vss
[5] = Half life in rat at 1 mg/kg, iv; type: ADME, organism-based; set-up: dose 1 mg/kg, route intravenous; details: in vivo

Compound	IC50 [1] [nM]	other results
O=C(O)c1cccc(-n2c(-c3cc(Cl)ccc3OCc3ccc(F)cc3F)ccc2C(F)(F)F)c1	100	–
Cc1ccc(-c2cc(Br)ccc2OCC2CCCC2)n1-c1cccc(C(=O)O)c1	15.8	–
Cc1ccc(-c2cc(Br)ccc2OCc2ccc(F)cc2)n1-c1cccc(C(=O)O)c1	6.31	IC50 (Cytochrome P450 (family)): ≥ 17 µM; IC50 (Cytochrome P450 2C9): 3.9 µM; bioavailability [2]: 44%; ED50 (Rattus norvegicus): 9.2 mg/kg; clearance [3]: 42 mL/min/kg; Vd [4]: 0.7 L/kg
Cc1ccccc1COc1ccc(Br)cc1-c1ccc(C)n1-c1cccc(C(=O)O)c1	20	–
Cc1ccc(-c2cc(Br)ccc2OCc2ccc(F)cc2Cl)n1-c1cccc(C(=O)O)c1	15.8	clearance [3]: 48 mL/min/kg; Vd [4]: 0.8 L/kg; half-life [5]: 18 min
Cc1ccc(-c2cc(Br)ccc2OCc2c(F)cccc2C(F)(F)F)n1-c1cccc(C(=O)O)c1	100	–
Cc1ccc(-c2cc(Cl)ccc2OCc2ccc(F)cc2)n1-c1cccc(C(=O)O)c1	6.31	clearance [3]: 48 mL/min/kg; Vd [4]: 0.9 L/kg
Cc1ccc(-c2cc(Br)ccc2OCc2ccc(F)c(F)c2)n1-c1cccc(C(=O)O)c1	5.01	–
Cc1ccc(-c2cc(Br)ccc2OCc2cc(F)ccc2F)n1-c1cccc(C(=O)O)c1	7.94	–
O=C(O)c1cccc(-n2c(-c3cc(Cl)ccc3OCc3ccc(F)cc3)ccc2C(F)(F)F)c1	200	–
Cc1ccc(COc2ccc(Br)cc2-c2ccc(C)n2-c2cccc(C(=O)O)c2)cc1	2.51	–
Cc1cc(COc2ccc(Br)cc2-c2ccc(C)n2-c2cccc(C(=O)O)c2)no1	25.1	–
Cc1c(Cl)cc(-c2cc(Cl)ccc2OCc2ccccc2)n1-c1cccc(C(=O)O)c1	> 1000	–
Cc1ccc(-c2cc(Cl)ccc2OCC(C)C)n1-c1cccc(C(=O)O)c1	5.01	–
Cc1ccc(-c2cc(Br)ccc2OCc2cccc(Cl)c2)n1-c1cccc(C(=O)O)c1	10	–
Cc1ccc(-c2cc(Br)ccc2OCc2c(F)cc(F)cc2F)n1-c1cccc(C(=O)O)c1	1.58	–
Cc1c(-c2ccccc2)cc(-c2cc(Cl)ccc2OCc2ccccc2)n1-c1cccc(C(=O)O)c1	> 1000	–
Cc1ccc(-c2cc(Br)ccc2OCC2CCCCC2)n1-c1cccc(C(=O)O)c1	39.8	–
Cc1ccc(-c2cc(Br)ccc2OCc2cccc(OC(F)F)c2)n1-c1cccc(C(=O)O)c1	79.4	–
Cc1ccc(-c2cc(Br)ccc2OCc2ccc(Cl)cc2Cl)n1-c1cccc(C(=O)O)c1	5.01	–
Cc1ccc(-c2cc(Cl)ccc2OCc2ccc(F)cc2F)n1-c1cccc(C(=O)O)c1	3.98	clearance [3]: 62 mL/min/kg; Vd [4]: 0.9 L/kg
Cc1ccc(-c2cc(Br)ccc2OCc2c(F)cccc2F)n1-c1cccc(C(=O)O)c1	1	–
Cc1ccc(-c2cc(Br)ccc2OCc2ccc(Cl)cc2)n1-c1cccc(C(=O)O)c1	10	clearance [3]: 51 mL/min/kg; Vd [4]: 0.8 L/kg; half-life [5]: 12 min
Cc1ccc(-c2ccccc2OCc2ccccc2)n1-c1cccc(C(=O)O)c1	20	–
Cc1ccc(-c2cc(Br)ccc2OCc2ccc(C(F)(F)F)cc2F)n1-c1cccc(C(=O)O)c1	12.6	–

Compound	IC50 [1] [nM]	other results
Cc1ccc(-c2cc(Br)ccc2OCc2ccccc2F)n1-c1cccc(C(=O)O)c1	3.16	–
Cc1noc(C)c1COc1ccc(Br)cc1-c1ccc(C)n1-c1cccc(C(=O)O)c1	200	–
Cc1ccc(-c2cc(Cl)ccc2OCC2CCOCC2)n1-c1cccc(C(=O)O)c1	39.8	–
Cc1ccc(-c2cc(C(F)(F)F)ccc2OCc2ccccc2)n1-c1cccc(C(=O)O)c1	5.01	–
Cc1ccc(-c2cc(S(C)(=O)=O)ccc2OCc2ccccc2)n1-c1cccc(C(=O)O)c1	25.1	–
Cc1ccc(-c2cc(Br)ccc2OCc2cccc(C(F)(F)F)c2)n1-c1cccc(C(=O)O)c1	251	–
COc1ccc(COc2ccc(Br)cc2-c2ccc(C)n2-c2cccc(C(=O)O)c2)cc1	50.1	–
COc1cccc(COc2ccc(Br)cc2-c2ccc(C)n2-c2cccc(C(=O)O)c2)c1	50.1	–
Cc1c(Br)cc(-c2cc(Cl)ccc2OCc2ccccc2)n1-c1cccc(C(=O)O)c1	794	clearance [3]: 54 mL/min/kg; Vd [4]: 1 L/kg; half-life [5]: 18 min
Cc1ccc(-c2cc(-c3ccccc3)ccc2OCc2ccccc2)n1-c1cccc(C(=O)O)c1	398	–
O=C(O)c1cccc(-n2c(Cl)ccc2-c2cc(Cl)ccc2OCc2ccccc2)c1	25.1	–
Cc1ccc(-c2cc(Cl)ccc2OCC2CCCCC2)n1-c1cccc(C(=O)O)c1	126	clearance [3]: 28 mL/min/kg; Vd [4]: 0.5 L/kg; half-life [5]: 24 min
Cc1ccc(-c2cc(Br)ccc2OCc2ccc(OC(F)(F)F)cc2)n1-c1cccc(C(=O)O)c1	15.8	–
Cc1ccc(-c2cc(Cl)ccc2OCC2CCCO2)n1-c1cccc(C(=O)O)c1 (configuration not stated)	39.8	–
Cc1ccc(-c2cc(Br)ccc2OCC(C)C)n1-c1cccc(C(=O)O)c1	5.01	–
Cc1ccc(-c2cc(C(F)(F)F)ccc2OCC2CCCCC2)n1-c1cccc(C(=O)O)c1	31.6	–
Cc1ccc(-c2cc(Br)ccc2OCc2ccc(Cl)c(Cl)c2)n1-c1cccc(C(=O)O)c1	100	–
Cc1ccc(-c2cc(Br)ccc2OCc2cccc(F)c2F)n1-c1cccc(C(=O)O)c1	6.31	–
CCc1ccc(-c2cc(Cl)ccc2OCc2ccccc2)n1-c1cccc(C(=O)O)c1	100	–
CCc1ccc(-c2cc(Br)ccc2OCc2ccccc2)n1-c1cccc(C(=O)O)c1	79.4	–
Cc1ccc(-c2cc(-c3ccsc3)ccc2OCc2ccccc2)n1-c1cccc(C(=O)O)c1	631	–
Cc1ccc(-c2cc(Br)ccc2OCc2ccc(C(F)(F)F)cc2)n1-c1cccc(C(=O)O)c1	39.8	–
Cc1ccc(-c2cc(Br)ccc2OCc2c(F)cccc2Cl)n1-c1cccc(C(=O)O)c1	12.6	–
Cc1ccc(-c2cc(Br)ccc2OCc2ccccc2Cl)n1-c1cccc(C(=O)O)c1	12.6	–
Cc1ccc(-c2cc(Cl)ccc2OCC2CCCC2)n1-c1cccc(C(=O)O)c1	25.1	–
